Data reported in US11078160B2, “Ethynyl compounds, their preparation and their therapeutic use for the treatment of malaria” (SANOFI, priority 2017, dated 2021).
Counter-ions that a name gives are not always drawn. Like-named read-outs stand apart in the source and are kept apart here. Blank lines part the entries; values can stand above or below the compound they belong to.

Assays:
Type in all cases: cell-based
[1] = test system: strain NF54 of P. falciparum; assay: 3H-hypoxanthine incorporation growth inhibition assay, P. falciparum NF54
Protocol: The biological activity of compounds of formula (I) according to the invention has been tested on the basis of an IC50 evaluation against the strain NF54 of P. falciparum.
For Hypoxanthine assay, parasite cultures were grown in 100 mm petri-dishes in growth media having 5% haematocrit in tri-gas incubator (Cat #3131, Thermo Scientific Forma Series II Water Jacketed CO2 incubator, sold by Thermofisher) having controlled gas mixtures of 4% CO2 and 3% O2 at temperature 37° C.
Parasite growth and morphology was observed daily using thin smears at 100× (oil immersion) magnification following staining with Giemsa stain.
Parasites use hypoxanthine included in the growth media as a precursor in nucleic acid synthesis. Accordingly, by replacing hypoxanthine in the media by a radioactive hypoxanthine, such as ^3H-hypoxanthine as indicated here-under, the rate of DNA replication and growth rate of the parasites can be measured, in particular in the presence of the tested compounds of the invention.
The growth media used for the above-indicated parasites contains 1 L of RPMI-1640 (sold by Invitrogen), […] of Albumax II (sold by Invitrogen), 5 mg of Hypoxanthine (sold by Sigma), 25 mM Hepes (sold by Invitrogen) and 2.5 mg of Gentamycin (sold by Sigma).
The screening media used contains 1 L of RPMI-1640 (sold by Invitrogen), […] of Albumax II (sold by Invitrogen), 25 mM Hepes (sold by Invitrogen) and 2.5 mg of Gentamycin (sold by Sigma).
For this assay, the above described screening media was used, as well as 20 Ci/mmol of a radioactive hypoxanthine (the ligand ^3H-hypoxanthine (20 Ci/mmol, 1 mCi/mL) sold by the American Radiolabeled Chemicals (ARC) from St Louis, Mo.), some Top Seal A (sold by Perkin Elmer), 96 Well Cell Culture plates (CellStar® sold by Greiner Bio-One GmbH), MicroScint® 20 (sold by Perkin Elmer) and GFB plates (sold by Perkin Elmer).
On each 96 well plate, 3 compounds of formula (I) according to the invention as well as one standard compound (positive control) are each tested in 12 wells in duplicate.
Said standard compound is a mixture of Artesunate and Chloroquine, two well-known anti malaria compounds.
The maximum activity value of the parasites is determined as positive control by observing the parasites in the presence of erythrocytes, while the minimum activity value of the parasites is determined in a negative control by observing the erythrocytes in the absence of parasites.
The tested compounds of the invention were assayed at a final concentration of 10 μM.
In order to do so, stock solutions at a concentration of […] of compound to be tested are made available in high recovery vials at a concentration of 10 mM. From this, a 20 μM stock in Screening media is prepared ([…] of 10 mM compound+996 μl of screening media) to keep % DMSO at 0.4.
Starting from 20 μM stock solution, 100 μl is added in the assay plate already containing 100 μl of screening media and 1:2 fold serial 12 point dilutions are made in the plate (10 μM to 4.8 nM) (100 μl of compound is mixed with 100 μl of screening media already present in plates, and so on).
P. falciparum culture diluted to 0.3% p and 1.25% h—synchronous ring stage. The assay was carried out in sterile, in the 96-well plate.
100 μL of P. falciparum culture was added per well and were then incubated at 37° C. for 48 hours. Smears are then made to check for growth of culture control after 48 hours of incubation.
Once ensured that the culture has grown in % p, 50 μL of 3H-Hypoxanthine (0.5 μCi/well) is added in each well, and the assay plate is further incubated for 24 hours.
After 72 hours, the assay plates are harvested on GFB plates. In order to remove nonspecific binding, the plates are washed with 2.5 ml of cooled distilled water and GFB plates were kept for drying at 37° C. over night or 60° C. for 1 hour.
50 μL of Microscint®-20 was added to each well.
The plates are then read in Top Count (45 sec/well).
The assay data were analysed using Graph pad prism ver.5 software. […]

[2] = test system: P. vivax clinical field isolates; assay: Ex vivo drug susceptibility assay (schizont maturation, flow cytometry) on P. vivax clinical field isolates; conditions: for Drug susceptibility difference between species: P. falciparum versus P. vivax clinical field isolates
From the text: The biological activity of compound 1b according to the invention has been tested on the basis of an IC50 evaluation against the strain P. vivax.
Plasmodium isolates were collected from patients attending malaria clinics in Timika (Papua, Indonesia), a region endemic for multidrug-resistant strains of P. vivax and P. falciparum. Patients with symptomatic malaria presenting to an outpatient facility were recruited into the study if singly infected with P. falciparum or P. vivax, with a parasitaemia of between […], and the majority (>60%) of parasites at ring stage of development. Venous blood (5 mL) was collected by venepuncture and after removal of host white blood cells by using Plasmodipur filters (EuroProxima B.V., The Netherlands), packed infected red blood cells (iRBCs) were used for the ex vivo drug susceptibility assay.
Standard anti-malarial drugs chloroquine (CQ), piperaquine (PIP), mefloquine (MFQ), and artesunate (AS) (WWARN QA/QC Reference Material Program), and experimental compound 1b were prepared as 1 mg/mL stock solutions in H2O or dimethyl sulfoxide (DMSO) according to the manufacturers' instructions. Drug plates were pre-dosed by diluting the compounds in 50% Methanol followed by lyophilisation and stored at 4° C.
(§1) Drug susceptibility of P. vivax and P. falciparum isolates was measured using a protocol modified from the WHO microtest (see for instance in Marfurt J. et al., Antimicrob Agents Chemother. 2011 September; 55(9):4461).
(§2) Two hundred μL of a 2% haematocrit Blood Media Mixture (BMM), consisting of RPMI 1640 medium plus 10% AB+ human serum (P. falciparum) or McCoy's 5A medium plus 20% AB+ human serum (P. vivax) was added to each well of pre-dosed drug plates containing 11 serial concentrations (2-fold dilutions) of the anti-malarials (maximum concentration shown in brackets) CQ (2,993 nM), PIP (1,029 nM), MFQ (338 nM), AS (49 nM), and compound 1b (237 nM). A candle jar was used to mature the parasites at 37° C. for 35-56 hours. Incubation was stopped when >40% of ring stage parasites had reached the mature schizont stage in the drug-free control wells as determined by light microscopy.
Parasite growth was quantified by nucleic acid staining and data acquisition using flow cytometry as described in detail elsewhere6. Parasite growth was quantified for each drug concentration and normalised to the control well.
The dose-response data were analysed using nonlinear regression analysis and the half-maximal inhibition of growth (IC50) value derived using an inhibitory sigmoid Emax model (In Vitro Analysis and Reporting Tool; IVART7).
Drug plate quality was assured by running schizont maturation assays with the chloroquine-resistant strain K1 and the chloroquine-sensitive strain FC27.

[3] = test system: P. falciparum clinical field isolates; assay: Ex vivo drug susceptibility assay (schizont maturation, flow cytometry) on P. falciparum clinical field isolates; conditions: Plasmodium falciparum, isolates from Timika (Papua, Indonesia), 35-56 hours
Protocol: Plasmodium isolates were collected from patients attending malaria clinics in Timika (Papua, Indonesia), a region endemic for multidrug-resistant strains of P. vivax and P. falciparum. Patients with symptomatic malaria presenting to an outpatient facility were recruited into the study if singly infected with P. falciparum or P. vivax, with a parasitaemia of between […], and the majority (>60%) of parasites at ring stage of development. […]
as §1
as §2, with “A candle jar was used to mature the parasites at 37° C. for 35-56 hours.” left out, “microscopy. […]” for “microscopy.”

[4] = Plasmodium falciparum, NF54, upper bound as printed, 72 hours, 3H-hypoxanthine incorporation, read-out: NF54 IC50
[5] = measured values printed under the bound, 72 hours, 3H-hypoxanthine incorporation, read-out: NF54 IC50 (nM), measured values

Compound: N=C(N)NC(=O)c1cc(F)cc(C#Cc2ccc(C(F)(F)F)c(C(=O)Nc3ccccn3)c2)c1 [Compound 7, 5-((3-(carbamimidoylcarbamoyl)-5-fluorophenyl)ethynyl)-N-(pyridin-2-yl)-2-(trifluoromethyl)benzamide hydrochloride]
IC50 [1, 4]: < 20 nM

Compound: N=C(N)NC(=O)c1cc(C#Cc2ccc(C(F)(F)F)c(C(N)=O)c2)cc(C(F)(F)F)c1 [Compound 8]
IC50 [1, 4]: < 100 nM

Compound: N=C(N)NC(=O)c1cc(C#Cc2ccc(C(F)(F)F)c(C(=O)Nc3ccccn3)c2)cc(C(F)(F)F)c1 [Compound 1a, 5-((3-(carbamimidoylcarbamoyl)-5-(trifluoromethyl)phenyl)ethynyl)-N-(pyridin-2-yl)-2-(trifluoromethyl)benzamide]
IC50 [1, 4]: < 10 nM
IC50 [1, 5]: 7 nM

Compound: N=C(N)NC(=O)c1cc(C#Cc2ccc(C(F)(F)F)c(C(=O)Nc3ccc(O)cn3)c2)cc(C(F)(F)F)c1 [Compound 5, 5-((3-(carbamimidoylcarbamoyl)-5-(trifluoromethyl)phenyl)ethynyl)-N-(5-hydroxypyridin-2-yl)-2-(trifluoromethyl)benzamide hydrochloride]
IC50 [1, 4]: < 10 nM

Compound: Cc1cccc(NC(=O)c2cc(C#Cc3cc(F)cc(C(=O)NC(=N)N)c3)ccc2C(F)(F)F)n1 [Compound 3, 5-((3-(carbamimidoylcarbamoyl)-5-fluorophenyl)ethynyl)-N-(6-methylpyridin-2-yl)-2-(trifluoromethyl)benzamide hydrochloride]
IC50 [1, 4]: < 25 nM

Compound: Cc1cccc(NC(=O)c2cc(C#Cc3cc(C(=O)NC(=N)N)cc(C(F)(F)F)c3)ccc2C)n1 [Compound 2, 5-((3-((diaminomethylene)carbamoyl)-5-(trifluoromethyl)phenyl)ethynyl)-2-methyl-N-(6-methylpyridin-2-yl)benzamide hydrochloride]
IC50 ([1]; Plasmodium falciparum, NF54, read-out: NF54 IC50 (nM)): < 25 nM

Compound: N=C(N)NC(=O)c1cc(C#Cc2ccc(C(F)(F)F)c(C(=O)Nc3ccccn3)c2)cc(C(F)(F)F)c1 [Compound 1c, 5-((3-(carbamimidoylcarbamoyl)-5-(trifluoromethyl)phenyl)ethynyl)-N-(pyridin-2-yl)-2-(trifluoromethyl)benzamide malonic acid]
IC50 [1, 5]: 17 nM
IC50 ([1]; upper bound, 72 hours, 3H-hypoxanthine incorporation, read-out: NF54 IC50): < 20 nM

Compound: Clc1ccc2c(N3CCN(CCCN4CCN(c5ccnc6cc(Cl)ccc56)CC4)CC3)ccnc2c1 [piperaquine]
Drug susceptibility difference between species [2]: did not differ significantly

Compound: Cc1ccc(C#Cc2cc(C(=O)NC(=N)N)cc(C(F)(F)F)c2)cc1C(=O)Nc1ccccn1 [Compound 4, 5-((3-(carbamimidoylcarbamoyl)-5-trifluoromethyl)phenyl)ethynyl)-2-methyl-N-(pyridin-2-yl)benzamide hydrochloride]
IC50 [1, 4]: < 10 nM

Compound: OC(c1cc(C(F)(F)F)nc2c(C(F)(F)F)cccc12)C1CCCCN1 (stereo not drawn) [mefloquine]
Drug susceptibility difference between species [2]: did not differ significantly

Compound: N=C(N)NC(=O)c1cc(C#Cc2ccc(Cl)c(C(=O)Nc3ccccn3)c2)cc(C(F)(F)F)c1 [Compound 6, 5-((3-(carbamimidoylcarbamoyl)-5-(trifluoromethyl)phenyl)ethynyl)-2-chloro-N-(pyridin-2-yl)benzamide hydrochloride]
IC50 [1, 4]: < 10 nM

Compound: C[C@H]1[C@H](OC(=O)CCC(=O)O)O[C@@H]2O[C@@]3(C)CC[C@H]4[C@H](C)CC[C@@H]1[C@@]24OO3 [artesunate]
Drug susceptibility difference between species [2]: did not differ significantly

IC50 [3]: 18.9 nM
IC50 ([2]; Plasmodium vivax, ex vivo, isolates from Timika (Papua, Indonesia), 35-56 hours): 12 nM
Compound: Cl.N=C(N)NC(=O)c1cc(C#Cc2ccc(C(F)(F)F)c(C(=O)Nc3ccccn3)c2)cc(C(F)(F)F)c1 [Compound 1b, 5-((3-(carbamimidoylcarbamoyl)-5-(trifluoromethyl)phenyl)ethynyl)-N-(pyridin-2-yl)-2-(trifluoromethyl)benzamide hydrochloride]
IC50 ([1]; upper bound, 72 hours, 3H-hypoxanthine incorporation, hydrochloride, read-out: NF54 IC50): < 15 nM
Drug susceptibility difference between species [2]: did not differ significantly
